Test results from patent US5500358A, “Antibody catalysis of cyclohexadienone rearrangments” (The Scripps Research Institute, priority 1994, dated 1996).

Test system: catalytic monoclonal antibody 62C7 (anti-13.3), secreted by hybridoma 62C7, ATCC HB11703
Test: Antibody-catalyzed dienone-phenol rearrangement of 7 to 8, product formation followed by reverse-phase HPLC
Type: biochemical, Balb/c mice
Procedure: The KLH conjugates of haptens 13.3, 13.4, and 13.5 were then employed to inoculate Balb/c mice and antibodies were generated by standard protocols. (G. Kohler et al. Nature (1975), vol. 265, page 495.) Monoclonal antibodies were purified from ascites fluid by anion exchange chromatography and assayed against substrate 7 for production of the phenol product 8. Fourteen anti-13.3, twenty two anti-13.4, and twenty one anti-13.5 antibodies were assayed for catalysis of the rearrangement reaction converting dienone substrate 7 to phenol product 8. […] Assay condition employed […] in 100 mM NaCl, 50 mM of either bistris(bis(hydroxyethyl)-tris(hydroxymethyl)aminomethane) or 1,3-bis[tris (hydroxymethyl)aminopropane at 37° C. Product formation was followed by reverse-phase HPLC (Vydac C-18 218TP54 column (0.45×22 cm) at a flow rate of 1.5 milliliters/minute using 28% CH3 CN and 72% H2 O+0.1% CF3 COOH. Retention time tR for substrate 7 was 5.02 minutes. Retention time tR for product 8 was 7.14 minutes. The pD (98%) D2 O) values were obtained by adding 0.4 to the pH-electrode reading. […] Antibody 62C7 (anti-13.3) was characterized in detail.
FIG. 3 illustrates the pH-profile of the rearrangement reaction in the presence of catalytic antibody 62C7 (anti-13.3) and without. Background rates are determined in H2 O and in D2 O. The lines are caluclated from the following equations respectively:
kcat =kcat °+kcatH -[H3 O^30 ]^0.92 ;
kH2O =k°+kH +[H3 O^30 ]; kD2O
Accordingly, FIG. 3 illustrates both the antibody 62C7 catalyzed and the background reactions proceed via a hydronium ion catalyzed pathway, viz. kcatH+ =0.176/Mole second, H+ =1.51×10^-3 /Mole second. […] This is consistent with pre-equilibrium protonation of substrate 7 to form a first intermediate 10. This reaction probably reflects the spontaneous rearrangement of substrate 7 to the conjugate base of a second intermediate 12. This rearrangement reaction probably also occurs when substrate 7 is complexed with anti-13.3, i.e., second intermediate 12 is formed within the antibody complex. Importantly, a small inverse secondary isotope effect is observed in all cases at position C(3) of the dienone, viz., kcatH /kCatD =0.88 at pH=5.75, kH /kD =0.88-0.94 from pH=2.95 to 9.54. […] Accordingly, the rate determining step is the […]. (V. Vitullo et al., J. Am. Chem. Soc. (1974), vol. 94, page 3844.) Although this carbon hydrogen bond is ultimately broken to yield the product phenol 8, it is not involved in the rate determining step as this would have given rise to a large, normal isotope effect at that position.

[1] = pH 5.75, 37° C., 100 mM NaCl, 50 mM buffer

Row | Km (in D2O, pD 7.07, 37° C.) [µM] | Km [1] [µM] | Km (pH 7.07, 37° C., H2O) [µM] | SMILES | kcatH+ (hydronium ion catalyzed pathway of the antibody reaction) (from pH-profile, FIG. 3) [mol⁻¹ s⁻¹] | kcat (in D2O, pD 7.07, 37° C.) [s⁻¹] | kcat / kuncat (in D2O, pD 7.07, 37° C.) | kcat (pH 5.75, 37° C.) [s⁻¹] | kcat / kuncat (pH 5.75, 37° C.) | kcat (pH 7.07, 37° C., H2O) [s⁻¹] | kcat / kuncat (pH 7.07, 37° C., H2O) | kcatH /kCatD (secondary isotope effect at position C(3) of the dienone) (pH=5.75, 7 versus 7-d2)
1 | 1300 | 670 | 1200 | COC1(Cc2ccc(C(=O)NCCO)cc2)C=C(C)C(=O)C(C)=C1 [Compound 7] | 0.176 | 1.25e-06 | 95 | 1.22e-06 | 80 | 1.25e-06 | 90 | 0.88
2 |  | 770 |  | [2H]C1=C(C)C(=O)C(C)=C([2H])C1(Cc1ccc(C(=O)NCCO)cc1)OC [Compound 7-d2] |  |  |  | 1.37e-06 | 80 |  |  | 
